Data: US12257246B2, “Composition of 2,4,6-trifluoro-n-[6-(1-methyl-piperidin-4-carbonyl)-pyridin-2-yl[-benzamide” (CoLucid Pharmaceuticals, Inc., priority 2009, dated 2025)
“Also recorded” adds a separate entry of the source.

Key:
[1] = biological target: T1, Human 5-HT1F receptor transfected NIH3T3 cells (Homo sapiens, UniProt P30939); experiment: Inhibition of forskolin stimulated cAMP formation; format: cell-based
T1 construct: expressed in transfected cells; host or cells: NIH3T3 cells
T1 sequence (P30939 1-366): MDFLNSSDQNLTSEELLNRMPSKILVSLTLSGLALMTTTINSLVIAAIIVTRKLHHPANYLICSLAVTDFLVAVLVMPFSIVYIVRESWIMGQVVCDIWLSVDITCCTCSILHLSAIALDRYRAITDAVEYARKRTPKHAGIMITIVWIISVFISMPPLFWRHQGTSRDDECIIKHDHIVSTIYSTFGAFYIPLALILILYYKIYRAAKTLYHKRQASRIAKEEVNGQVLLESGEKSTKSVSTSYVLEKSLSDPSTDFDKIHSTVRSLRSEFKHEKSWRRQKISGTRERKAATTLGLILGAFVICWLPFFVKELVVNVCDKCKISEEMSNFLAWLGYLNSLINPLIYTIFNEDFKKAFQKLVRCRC
Protocol: As was reported by R. L. Weinshank, et al., WO93/14201, the 5-HT1F receptor is functionally coupled to a G-protein as measured by the ability of serotonin and serotonergic drugs to inhibit forskolin stimulated cAMP production in NIH3T3 cells transfected with the 5-HT1F receptor. Adenylate cyclase activity was determined using standard techniques. A maximal effect is achieved by serotonin. An Emax is determined by dividing the inhibition of a test compound by the maximal effect and determining a percent inhibition. N. Adham, et al., supra; R. L. Weinshank, et al., Proceedings of the National Academy of Sciences (USA), 89:3630-3634, 1992; and the references cited therein.
Human 5-HT1F receptor transfected NIH3T3 cells (estimated Bmax from one point competition studies=488 fmol/mg of protein) were incubated in DMEM, 5 mM theophylline, 10 mM HEPES (4-[2-hydroxyethyl]-1-piperazineethanesulfonic acid) and 10 μM pargyline for 20 minutes at 37° C., 5% CO2. Drug dose-effect curves were then conducted by adding 6 different final concentrations of drug, followed immediately by the addition of forskolin (10 μM). Subsequently, the cells were incubated for an additional 10 minutes at 37° C., 5% CO2. The medium was aspirated and the reaction was stopped by the addition of 100 mM HCl. […] Radioactivity was quantified using a Packard COBRA Auto Gamma counter, equipped with data reduction software.

[2] = test system: healthy male and female subjects; experiment: Oral safety and tolerability, Study 1 and Study 2; format: in vivo, human; set-up: Subjects with Nausea: dose or concentration left out as unconfirmed
[3] = test system: patients with migraine; experiment: Intravenous dose-finding study in acute migraine: tolerability and safety; format: in vivo, human
Protocol: The study used a prospective, randomized, double-blind, placebo-controlled design with group-sequential adaptive-treatment assignment (Olesen J et al., N Engl J Med 2004: 350: 1104-10; Hall D B et al., Contemporary Clinical Trials 2005; 26: 349-63). […] The first cohort was allocated to the 2.5 mg dose level. The dose used in subsequent cohorts depended on the headache response (moderate or severe headache reduced to mild or none at 2 hours) of the previous cohort: if 2 or less of the 4 active-treated patients had responded, the dose was increased, and if 3 or more of the 4 active-treated patients had responded, the dose was reduced. The dose adjustment rules were chosen to identify doses of Compound I with efficacy similar to or better than an oral triptan. […] The occurrence of a drug-related serious adverse event would lead to automatic suspension of the randomization pending a safety review.
Data were entered concurrently into an online electronic data capture system. Patients were discharged from the clinic after 4 h and continued to record migraine symptoms and adverse events until 24 h using a diary card.

[4] = Study 2 Part 1, 200 mg tablet (N = 28)
[5] = Study 2 Part 1, 200 mg tablet (N = 29)
[6] = Study 2 Part 2, 50 mg tablet (N = 28)
[7] = Study 2 Part 2, 400 mg tablet (N = 28)

Compound: CN1CCC(C(=O)c2cccc(NC(=O)c3c(F)cc(F)cc3F)n2)CC1 [Compound I, 2,4,6-trifluoro-N-[6-(1-methyl-piperidin-4-ylcarbonyl)-pyridin-2-yl]-benzamide]
- functional activity in cAMP assay [1]: agonist of the 5-HT1F receptor
- Subjects with Blurred vision [2, 4]: 0 n
- Subjects with Feeling hot [2, 4]: 0 n
- Subjects with Palpitations [2, 4]: 0 n
- Subjects with Blurred vision [2, 5]: 0 n
- Subjects with Diarrhea [2, 5]: 0 n
- Subjects with Feeling hot [2, 5]: 0 n
- Subjects with Headache [2, 5]: 0 n
- Subjects with Palpitations [2, 5]: 0 n
- Subjects with Blurred vision [2, 6]: 0 n
- Subjects with Diarrhea [2, 6]: 0 n
- Subjects with Feeling hot [2, 6]: 0 n
- Subjects with Headache [2, 6]: 0 n
- Subjects with Diarrhea [2, 7]: 0 n
- Subjects with Palpitations [2, 7]: 0 n
- Subjects with Nausea ([2]; Study 2 Part 2, tablet (N = 28)): 0 n
- fatigue, females ([2]; after the 400 mg oral dose): 50%
- fatigue, males ([2]; after the 400 mg oral dose): 21%
- tolerability ([2]; all oral doses of solution and tablet): well tolerated
- tolerability ([2]; doses above 400 mg administered orally): not well tolerated
- Patients with adverse event Fatigue ([3]; 2.5 mg iv): 0.0%
- Patients with adverse event Feeling of relaxation ([3]; 2.5 mg iv): 0.0%
- Patients with adverse event Paresthesia ([3]; 2.5 mg iv): 0.0%
- Patients with adverse event Sensation of heaviness ([3]; 2.5 mg iv): 0.0%
- Patients with adverse event Feeling of relaxation ([3]; 5 mg iv): 0.0%
- Patients with adverse event Paresthesia ([3]; 5 mg iv): 0.0%
- Patients with adverse event Sensation of heaviness ([3]; 5 mg iv): 0.0%
- Patients with adverse event Feeling of relaxation ([3]; 10 mg iv): 0.0%
- Patients with adverse event Fatigue ([3]; 45 mg iv): 0.0%
- Patients with adverse event Feeling of relaxation ([3]; 45 mg iv): 0.0%
- Patients with adverse event Sensation of heaviness ([3]; 45 mg iv): 0.0%
- patients reporting adverse events ([3]; all iv doses 2.5 to 45 mg (placebo 43%)): 65%
- tolerability ([3]; doses above 60 mg intravenously over 20 minutes): not well tolerated
- serious adverse events or withdrawals ([3]; iv): no serious adverse events or withdrawals due to non-serious adverse events
- vital signs, ECG, hematological and clinical chemistry parameters ([3]; iv): No clinically significant changes; also recorded: no clinically significant abnormalities
- tolerability ([3]; iv 2.5 to 45 mg over 20 min): generally well tolerated
- triptan-like chest symptoms ([3]; iv infusion): No patient reported triptan-like chest symptoms; also recorded: no patient-reported chest symptoms or chest discomfort
